Values joined by “and” are separate entries in the source; they are usually repeats but may differ in a detail not shown here. Identical values can stand only once.
Tests used:
human recombinant MAO-A = biological target: T1, human recombinant MAO-A (Homo sapiens, UniProt P21397); test: MAO-A inhibition kinetics (variable substrate, Lineweaver–Burk plot); assay type: biochemical; parameters: Michaelis-Menten best-fit Vmax of MAO-A / Michaelis-Menten best-fit Vmax of MAO-A, Average: unit not given here; settings: for MAO-A assay signal (luminescence) / Transformed (reciprocal of MAO-A assay signal) / Michaelis-Menten best-fit Vmax of MAO-A: N=1-3
T1 construct: purchased Sigma-Aldrich
T1 sequence (P21397 1-527): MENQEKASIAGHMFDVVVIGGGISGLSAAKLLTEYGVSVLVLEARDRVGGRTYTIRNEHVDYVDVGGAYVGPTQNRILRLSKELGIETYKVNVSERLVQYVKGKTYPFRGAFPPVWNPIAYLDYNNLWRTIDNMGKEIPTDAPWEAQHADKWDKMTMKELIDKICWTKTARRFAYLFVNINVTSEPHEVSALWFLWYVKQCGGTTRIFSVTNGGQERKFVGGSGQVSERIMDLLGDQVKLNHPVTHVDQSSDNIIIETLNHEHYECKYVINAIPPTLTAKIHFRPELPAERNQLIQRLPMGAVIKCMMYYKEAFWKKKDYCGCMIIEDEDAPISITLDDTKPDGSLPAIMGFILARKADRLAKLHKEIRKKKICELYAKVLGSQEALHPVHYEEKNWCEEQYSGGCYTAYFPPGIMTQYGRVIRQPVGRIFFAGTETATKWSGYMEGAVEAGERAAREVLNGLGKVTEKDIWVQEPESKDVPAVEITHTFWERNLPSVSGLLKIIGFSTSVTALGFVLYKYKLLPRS
Method: (§1) MAO inhibition assays were performed using a MAO-Glo™ Assay kit (Promega) according to the manufacturer’s instructions. Briefly, 1 µg of human recombinant MAO-A and MAO-B enzyme isoforms were incubated with 160 and 16 µM of MAO substrates, respectively. […] The enzyme reaction was quenched by the addition of a luciferin detection reagent. […] An equal volume of dimethyl sulfoxide (0.1%) was added to the enzyme assay as a control. After 1 h of incubation, the luminescence was measured with a multimode microplate reader (Synergy HT, BioTek, Winooski, VT, USA) to determine the MAO enzyme activities. Initially, the inhibition potential of all the test compounds was evaluated at a concentration of 100 μM. The control reaction (with no inhibitor) with vehicle (DMSO 0.1%) was set at 100% activity. To determine IC50 of the test compounds, the dose dependent enzyme assays were performed. We used range of 0.1 to 50 μM concentrations for MAO-A and 0.1 to 200 μM concentrations of test compounds for the MAO-B enzyme activities. The type of enzyme inhibition was determined using variable concentrations of MAO-A substrate (10–360 µM) and MAO-B substrate (2–64 µM) for the respective enzyme assay. […] A Lineweaver–Burk double reciprocal plot was generated, and the mode of inhibition was determined by visual examination of the plot. The slope of the reciprocal plots was plotted against the inhibitor concentrations and determined the x-axis intercept that represented the inhibitor constant, Ki value.
All experiments were performed in triplicates and data are presented as mean ± standard error of the mean (SEM). The raw data are provided in Supplementary Data, Table S1. Enzyme kinetic data were analyzed using the Lineweaver–Burk plot. Statistical analysis was performed by Student’s t-test using GraphPad Prism Ver. 7.0 (GraphPad Prism Software Inc., San Diego, CA, USA).

human recombinant MAO-B = biological target: T2, human recombinant MAO-B (Homo sapiens, UniProt P27338); test: MAO-Glo MAO-B inhibition assay; assay type: biochemical; settings: N=1-3, listed as UroA
T2 construct: purchased Sigma-Aldrich
T2 sequence (P27338 1-520): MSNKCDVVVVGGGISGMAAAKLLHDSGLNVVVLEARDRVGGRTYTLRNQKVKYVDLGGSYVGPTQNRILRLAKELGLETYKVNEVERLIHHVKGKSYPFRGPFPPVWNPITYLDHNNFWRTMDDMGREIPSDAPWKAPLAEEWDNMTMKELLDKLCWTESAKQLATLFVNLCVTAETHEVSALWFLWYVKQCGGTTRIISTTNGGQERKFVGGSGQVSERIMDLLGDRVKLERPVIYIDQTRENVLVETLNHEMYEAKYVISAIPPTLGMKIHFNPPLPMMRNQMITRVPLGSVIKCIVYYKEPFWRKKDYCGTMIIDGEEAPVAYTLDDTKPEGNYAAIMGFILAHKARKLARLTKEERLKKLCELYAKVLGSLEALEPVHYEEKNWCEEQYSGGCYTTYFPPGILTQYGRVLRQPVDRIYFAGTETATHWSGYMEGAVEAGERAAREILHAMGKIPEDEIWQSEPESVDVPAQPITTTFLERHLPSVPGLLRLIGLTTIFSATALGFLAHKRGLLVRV
Method: as §1

[1] = UroA 3 µM, MAO-A substrate 10 uM
[2] = UroA 3 µM, MAO-A substrate 20 uM
[3] = UroA 3 µM, MAO-A substrate 40 uM
[4] = UroA 3 µM, MAO-A substrate 80 uM
[5] = UroA 3 µM, MAO-A substrate 160 uM
[6] = UroA 3 µM, MAO-A substrate 320 uM
[7] = UroA 12 µM, MAO-A substrate 10 uM
[8] = UroA 12 µM, MAO-A substrate 20 uM
[9] = UroA 12 µM, MAO-A substrate 40 uM
[10] = UroA 12 µM, MAO-A substrate 80 uM
[11] = UroA 12 µM, MAO-A substrate 160 uM

O=c1oc2cc(O)ccc2c2ccc(O)cc12 [UA, urolithin-A]
mode of inhibition of MAO-A (human recombinant MAO-A; Lineweaver–Burk plot): mixed mode of inhibition | MAO-A assay signal (luminescence), Average (human recombinant MAO-A; [1]): 962.333 | MAO-A assay signal (luminescence) (human recombinant MAO-A; [1]): 1018 and 920 and 949 | MAO-A assay signal (luminescence), Average (human recombinant MAO-A; [2]): 1760.33 | MAO-A assay signal (luminescence) (human recombinant MAO-A; [2]): 1739 and 1707 and 1835 | MAO-A assay signal (luminescence), Average (human recombinant MAO-A; [3]): 3218.67 | MAO-A assay signal (luminescence) (human recombinant MAO-A; [3]): 3261 and 3188 and 3207 | MAO-A assay signal (luminescence), Average (human recombinant MAO-A; [4]): 6181.33 | MAO-A assay signal (luminescence) (human recombinant MAO-A; [4]): 6231 and 6107 and 6206 | MAO-A assay signal (luminescence), Average (human recombinant MAO-A; [5]): 11480.7 | MAO-A assay signal (luminescence) (human recombinant MAO-A; [5]): 11583 and 11575 and 11284 | MAO-A assay signal (luminescence), Average (human recombinant MAO-A; [6]): 20098 | MAO-A assay signal (luminescence) (human recombinant MAO-A; [6]): 20331 and 20247 and 19716 | Transformed (reciprocal of MAO-A assay signal), Average (human recombinant MAO-A; UroA 3 µM, [1/S] 0.003125): 4.976e-5 | Transformed (reciprocal of MAO-A assay signal) (human recombinant MAO-A; UroA 3 µM, [1/S] 0.003125): 4.9186e-5 and 4.939e-5 and 5.072e-5 | Transformed (reciprocal of MAO-A assay signal), Average (human recombinant MAO-A; UroA 3 µM, [1/S] 0.00625): 8.7103e-5 | Transformed (reciprocal of MAO-A assay signal) (human recombinant MAO-A; UroA 3 µM, [1/S] 0.00625): 8.633e-5 and 8.639e-5 and 8.862e-5 | Transformed (reciprocal of MAO-A assay signal), Average (human recombinant MAO-A; UroA 3 µM, [1/S] 0.0125): 0.0001618 | Transformed (reciprocal of MAO-A assay signal) (human recombinant MAO-A; UroA 3 µM, [1/S] 0.0125): 0.0001605 and 0.0001637 and 0.0001611 | Transformed (reciprocal of MAO-A assay signal), Average (human recombinant MAO-A; UroA 3 µM, [1/S] 0.025): 0.0003107 | Transformed (reciprocal of MAO-A assay signal) (human recombinant MAO-A; UroA 3 µM, [1/S] 0.025): 0.0003067 and 0.0003137 and 0.0003118 | Transformed (reciprocal of MAO-A assay signal), Average (human recombinant MAO-A; UroA 3 µM, [1/S] 0.05): 0.0005681 | Transformed (reciprocal of MAO-A assay signal) (human recombinant MAO-A; UroA 3 µM, [1/S] 0.05): 0.000575 and 0.0005858 and 0.000545 | Transformed (reciprocal of MAO-A assay signal), Average (human recombinant MAO-A; UroA 3 µM, [1/S] 0.1): 0.001039 | Transformed (reciprocal of MAO-A assay signal) (human recombinant MAO-A; UroA 3 µM, [1/S] 0.1): 0.0009823 and 0.001087 and 0.001054 | MAO-A assay signal (luminescence), Average (human recombinant MAO-A; [7]): 978.667 | MAO-A assay signal (luminescence) (human recombinant MAO-A; [7]): 993 and 1030 and 913 | MAO-A assay signal (luminescence), Average (human recombinant MAO-A; [8]): 1695.33 | MAO-A assay signal (luminescence) (human recombinant MAO-A; [8]): 1731 and 1673 and 1682 | MAO-A assay signal (luminescence), Average (human recombinant MAO-A; [9]): 3058.33 | MAO-A assay signal (luminescence) (human recombinant MAO-A; [9]): 3191 and 2983 and 3001 | MAO-A assay signal (luminescence), Average (human recombinant MAO-A; [10]): 5849.33 | MAO-A assay signal (luminescence) (human recombinant MAO-A; [10]): 5814 and 5864 and 5870 | MAO-A assay signal (luminescence), Average (human recombinant MAO-A; [11]): 10871 | MAO-A assay signal (luminescence) (human recombinant MAO-A; [11]): 10945 and 10745 and 10923 | MAO-A assay signal (luminescence), Average (human recombinant MAO-A; UroA 12 µM, MAO-A substrate 320 uM): 12941.7 | Transformed (reciprocal of MAO-A assay signal), Average (human recombinant MAO-A; UroA 12 µM, [1/S] 0.003125): 7.727e-5 | Transformed (reciprocal of MAO-A assay signal) (human recombinant MAO-A; UroA 12 µM, [1/S] 0.003125): 8.026e-5 and 7.7238e-5 and 7.452e-5 | Transformed (reciprocal of MAO-A assay signal), Average (human recombinant MAO-A; UroA 12 µM, [1/S] 0.00625): 9.199e-5 | Transformed (reciprocal of MAO-A assay signal) (human recombinant MAO-A; UroA 12 µM, [1/S] 0.00625): 9.137e-5 and 9.307e-5 and 9.155e-5 | Transformed (reciprocal of MAO-A assay signal), Average (human recombinant MAO-A; UroA 12 µM, [1/S] 0.0125): 0.000171 | Transformed (reciprocal of MAO-A assay signal) (human recombinant MAO-A; UroA 12 µM, [1/S] 0.0125): 0.000172 and 0.0001705 and 0.0001704 | Transformed (reciprocal of MAO-A assay signal), Average (human recombinant MAO-A; UroA 12 µM, [1/S] 0.025): 0.000327 | Transformed (reciprocal of MAO-A assay signal) (human recombinant MAO-A; UroA 12 µM, [1/S] 0.025): 0.0003134 and 0.0003352 and 0.0003332 | Transformed (reciprocal of MAO-A assay signal), Average (human recombinant MAO-A; UroA 12 µM, [1/S] 0.05): 0.0005899 | Transformed (reciprocal of MAO-A assay signal) (human recombinant MAO-A; UroA 12 µM, [1/S] 0.05): 0.0005777 and 0.0005977 and 0.0005945 | Transformed (reciprocal of MAO-A assay signal), Average (human recombinant MAO-A; UroA 12 µM, [1/S] 0.1): 0.001022 | Transformed (reciprocal of MAO-A assay signal) (human recombinant MAO-A; UroA 12 µM, [1/S] 0.1): 0.001007 and 0.0009709 and 0.001095 | Michaelis-Menten best-fit Vmax of MAO-A, Average (human recombinant MAO-A; in presence of UroA 3 uM): 79114.7 | Michaelis-Menten best-fit Vmax of MAO-A (human recombinant MAO-A; in presence of UroA 3 uM): 80970 and 83529 and 72845 | Michaelis-Menten best-fit Vmax of MAO-A, Average (human recombinant MAO-A; in presence of UroA 12 uM): 65883.7 | Michaelis-Menten best-fit Vmax of MAO-A (human recombinant MAO-A; in presence of UroA 12 uM): 75205 and 61786 and 60660 | Ki (human recombinant MAO-A; x-axis intercept of slopes of Lineweaver–Burk plots vs inhibitor concentration): 10 µM | MAO-B enzyme assay, Percent of control (human recombinant MAO-B; 0.1 µM): 100.912% of control and 101.373% of control and 99.9795% of control | MAO-B enzyme assay, Percent of control (human recombinant MAO-B; 1 µM): 93.9146% of control and 96.8343% of control and 95.7816% of control | MAO-B enzyme assay, Percent of control (human recombinant MAO-B; 10 µM): 91.0665% of control and 92.3573% of control and 93.7097% of control | MAO-B enzyme assay, Percent of control (human recombinant MAO-B; 25 µM): 94.1092% of control and 90.4928% of control | MAO-B enzyme assay, Percent of control (human recombinant MAO-B; 50 µM): 81.2724% of control and 83.4341% of control and 89.5093% of control | MAO-B enzyme assay, Percent of control (human recombinant MAO-B; 100 µM (Figure 1C), 100 µM): 76.7559% of control and 78.826% of control and 78.8568% of control | MAO-B enzyme assay, Percent of control (human recombinant MAO-B; 100 µM): 71.1402% of control and 80.3709% of control and 83.4443% of control | MAO-B enzyme assay, Percent of control (human recombinant MAO-B; 200 µM): 40.5081% of control and 42.2805% of control and 48.6733% of control

Source: publication PMC7345905, “Microbial Metabolite Urolithin B Inhibits Recombinant Human Monoamine Oxidase A Enzyme” (Metabolites, 2020)
